Experiments:
[1] = test system: 1df (DNA, aptamer, artificial imidazole 2'-deoxyribonucleoside (Im) replacing G at 11 and C at 17 (Im:Im mispair)) ACCTGGGGGAGTATTGCGGAGGAAGGT; test: elution from ATP-agarose column; conditions: 300 mM Na+, 5 mM Mg2+; 20 mM MOPS pH 7.4; 3 mM GMP; no elution of aptamer from immobilised ATP
[2] = test system: 1bf (DNA, aptamer, artificial imidazole 2'-deoxyribonucleoside (Im) replacing C at 3 and G at 25 (Im:Im mispair)) ACCTGGGGGAGTATTGCGGAGGAAGGT; test: elution from ATP-agarose column; conditions: 300 mM Na+, 5 mM Mg2+; 20 mM MOPS pH 7.4; 3 mM GMP; no elution of aptamer from immobilised ATP
[3] = test system: 1af (DNA, aptamer) ACCTGGGGGAGTATTGCGGAGGAAGGT; test: elution from ATP-agarose column; conditions: 300 mM Na+, 5 mM Mg2+; 20 mM MOPS pH 7.4; 3 mM GMP; no elution of aptamer from immobilised ATP
[4] = test system: 1cf (DNA, aptamer, artificial imidazole 2'-deoxyribonucleoside (Im) replacing T at 4 and A at 24 (Im:Im mispair)) ACCTGGGGGAGTATTGCGGAGGAAGGT; test: elution from ATP-agarose column; conditions: 300 mM Na+, 5 mM Mg2+; 20 mM MOPS pH 7.4; 3 mM GMP; no elution of aptamer from immobilised ATP
[5] = test system: 1df (DNA, aptamer, artificial imidazole 2'-deoxyribonucleoside (Im) replacing G at 11 and C at 17 (Im:Im mispair)) ACCTGGGGGAGTATTGCGGAGGAAGGT; test: fluorescence, structure-switching strand displacement; conditions: 300 mM Na+, 5 mM Mg2+; 20 mM MOPS pH 7.4, 22 °C; 1 mM AMP; DABCYL strand 1q displaced
[6] = test system: 1a (DNA, aptamer) ACCTGGGGGAGTATTGCGGAGGAAGGT; test: fluorescence, structure-switching strand displacement (system B); conditions: 300 mM Na+, 5 mM Mg2+; 20 mM MOPS pH 8.1, 22 °C; 1 mM AMP; strands 2f (fluorescein) and 2q (DABCYL) displaced
[7] = test system: 1af (DNA, aptamer) ACCTGGGGGAGTATTGCGGAGGAAGGT; test: fluorescence, structure-switching strand displacement; conditions: 300 mM Na+, 5 mM Mg2+; 20 mM MOPS pH 7.4, 22 °C; 1 mM AMP; DABCYL strand 1q displaced
[8] = test system: 1cf (DNA, aptamer, artificial imidazole 2'-deoxyribonucleoside (Im) replacing T at 4 and A at 24 (Im:Im mispair)) ACCTGGGGGAGTATTGCGGAGGAAGGT; test: as above; conditions: 300 mM Na+, 5 mM Mg2+; 20 mM MOPS pH 7.4, 22 °C; 1 mM AMP; DABCYL strand 1q displaced
[9] = test system: 1bf (DNA, aptamer, artificial imidazole 2'-deoxyribonucleoside (Im) replacing C at 3 and G at 25 (Im:Im mispair)) ACCTGGGGGAGTATTGCGGAGGAAGGT; test: as above; conditions: 300 mM Na+, 5 mM Mg2+; 20 mM MOPS pH 7.4, 22 °C; 1 mM AMP; DABCYL strand 1q displaced

Row | SMILES | binding [1] | binding [2] | binding [3] | binding [4] | binding [5] | binding [6] | binding [7] | binding [8] | binding [9]
1 | Nc1nc2c(ncn2[C@@H]2O[C@H](COP(=O)(O)O)[C@@H](O)[C@H]2O)c(=O)[nH]1 | no | no | no | no | – | – | – | – | –
2 | Nc1ncnc2c1ncn2[C@@H]1O[C@H](COP(=O)(O)O)[C@@H](O)[C@H]1O | – | – | – | – | weak | yes | yes | yes | yes
